Test results from patent publication US20250368638A1, “BICYCLIC INHIBITORS OF NICOTINAMIDE […], COMPOSITIONS AND USES THEREOF” (President and Fellows of Harvard College, priority 2021, published 2025).
“And” between values parts separate entries of the source, which are not always exact repeats. Equal values may be shown once.

Assays:
[1] = Permeability assay in Caco-2 cells; settings: human
Description: Preparation of Caco-2 Cells: 50 μL and 25 mL of cell culture medium were added to each well of the Transwell insert and reservoir, respectively. And then the HTS transwell plates were incubated at 37° C., 5% CO2 for 1 hour before cell seeding. […] Cell culture medium was replaced every other day, beginning no later than 24 hours after initial plating.
Preparation of Stock Solutions: The stock solutions of control and test compounds were prepared in DMSO at the concentration of 10 mM. Digoxin, Prazosin and propranolol were used as control compounds in this assay.
Assay Procedures: The Caco-2 plate was removed from the incubator and washed twice with pre-warmed HBSS (10 mM HEPES, pH 7.4), and then incubated at 37° C. for 30 minutes. The stock solutions of controls and Test compounds were diluted in DMSO to get 1 mM solutions and then diluted with HBSS (10 mM HEPES, pH 7.4) to get 5 μM working solutions. The final concentration of DMSO in the incubation system was 0.5%. To determine the rate of drug transport in the apical to basolateral direction. Add 125 μL of the test compounds to the Transwell insert (apical compartment), and transfer 50 μL sample (DO sample) immediately from the apical compartment to a new 96-well plate. Fill the wells in the receiver plate (basolateral compartment) with 235 μL of HBSS (10 mM HEPES, pH 7.4). To determine the rate of drug transport in the basolateral to apical direction. Add 285 μL of the test compounds to the receiver plate wells (basolateral compartment), and transfer 50 μL sample (DO sample) immediately from the basolateral compartment to a new 96-well plate. Fill the Transwell insert (apical compartment) with 75 μL of HBSS (10 mM HEPES, pH 7.4). Time 0 samples were prepared by transferring 50 μL of 5 μM working solution to wells of the 96-deepwell plate, followed by the addition of 200 μL cold acetonitrile containing appropriate internal standards (100 nM alprazolam, 200 nM labetalol, 200 nM caffeine and 200 nM diclofenac). The plates were incubated at 37° C. for 2 hours. […] Samples were vortexed for 5 minutes and then centrifuged at 3,220 g for 40 minutes. An aliquot of 100 μL of the supernatant was mixed with 100 μL of ultra-pure water to use for LC-MS/MS analysis. To determine the Lucifer Yellow leakage after 2 hour transport period, stock solution of Lucifer yellow was prepared in water and diluted with HBSS (10 mM HEPES, pH 7.4) to reach the final concentration of 100 μM. 100 μL of the Lucifer yellow solution was added to each Transwell insert (apical compartment), followed by filling the wells in the receiver plate (basolateral compartment) with 300 μL of HBSS (10 mM HEPES, pH 7.4). The plates were incubated at 37° C. for 30 minutes. 80 μL samples were removed directly from the apical and basolateral wells (using the basolateral access holes) and transferred to wells of new 96 wells plates.

recombinant human NNMT = molecular target: T1, recombinant human NNMT (Homo sapiens, UniProt P40261); assay: in vitro NNMT enzyme inhibition assay (Promega MTase-Glo Methyltransferase Assay); assay type: biochemical; settings: 40 nM recombinant human NNMT, 8 μM nicotinamide, 6.7 μM SAM, 20 minutes
T1 sequence (P40261 1-264): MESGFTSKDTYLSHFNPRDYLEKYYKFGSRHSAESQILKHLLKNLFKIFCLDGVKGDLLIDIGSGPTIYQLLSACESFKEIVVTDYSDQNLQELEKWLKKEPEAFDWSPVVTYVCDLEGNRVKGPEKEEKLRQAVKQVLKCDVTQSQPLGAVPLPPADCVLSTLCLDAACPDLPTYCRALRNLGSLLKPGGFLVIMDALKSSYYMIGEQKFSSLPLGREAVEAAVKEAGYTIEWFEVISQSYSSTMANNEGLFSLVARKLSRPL
Description: NNMT biochemical activity for was evaluated using the Promega Mtase-Glo Methyltransferase Assay kit. Assays were performed in a white, flat-bottomed 96 well plate. […] Reactions were performed for 20 minutes at room temperature. MTase-Glo reagent and MTase-Glo detection solution were added according to manufacturer's instructions and luminescence signal measured with a SpectraMax i3 plate reader and data analyzed with GraphPad Prism version 9. Scheme 16 depicts a visual summary of the Promega MTase-Glo Methyltransferase assay used to assess biochemical activity of novel inhibitors.

C[C@@H]1Cc2cc(C(N)=O)cnc2N1 [Compound 11, (2R)-2-methyl-2,3-dihydro-1H-pyrrolo[2,3-b]pyridine-5-carboxamide]
Papp A→B at 2 h, 5 μM ([1]; Caco-2, pH 7.4): 27.5 ×10⁻⁶ cm/s | Papp B→A at 2 h, 5 μM ([1]; Caco-2, pH 7.4): 21.8 ×10⁻⁶ cm/s | efflux ratio at 2 h, 5 μM ([1]; Caco-2, pH 7.4): 0.79 | recovery at 2 h, 5 µM ([1]; Caco-2, pH 7.4, Recovery (%) AP-BL): 102% | recovery at 2 h, 5 µM ([1]; Caco-2, pH 7.4, Recovery (%) BL-AP): 106% | IC50 (recombinant human NNMT): 35 nM and 35 to 42 nM
